# Data reported in article PMC5312080 (mBio, 2017).
# “And” between values parts separate entries of the source, which are not always exact repeats. Equal entries are not always repeated.
# Tested on: clinical drug-susceptible and drug-resistant M. tuberculosis strains
# Assay: microbe, parasite or virus in culture
# Assay type: cell-based
# Details: Mycobacterium tuberculosis
row,SMILES,MIC
1,"COc1ccc(-c2cc(NC(=O)c3ccc(F)cc3Cl)ccc2OC)cc1 [DG70, 2-chloro-N-(4',6-dimethoxy-[1,1'-biphenyl]-3-yl)-4-fluorobenzamide]",1.2 to 9.6 µg/mL

# Same assay, conditions: Mycobacterium tuberculosis, H37RV
row,SMILES,MIC90
1,"NNC(=O)c1ccncc1 [INH, isoniazid]",0.05 µg/mL

# Same assay, conditions: Mycobacterium tuberculosis, H37RV; read-out: MIC90
row,SMILES,MIC90
1,"COc1ccc(-c2cc(NC(=O)c3ccc(F)cc3Cl)ccc2OC)cc1 [DG70, 2-chloro-N-(4',6-dimethoxy-[1,1'-biphenyl]-3-yl)-4-fluorobenzamide]",4.8 µg/mL

# Tested on: DG70-resistant mutants of H37Rv
# Assay: not given
# Assay type: cell-based, Mycobacterium tuberculosis
# Details: not given
SMILES,MIC in Mtb P3 V20A,MIC in Mtb P7 F118L,DG70 MIC90
COc1ccc(NC(=O)c2ccc(F)cc2Cl)cc1-c1ccccc1 [JSF-2971],40 µg/mL,40 µg/mL,
COc1ccc(-c2cccc(NC(=O)c3ccc(F)cc3Cl)c2)cc1 [JSF-2907],>80 µg/mL,>80 µg/mL,
O=C(Nc1ccc(O)c(-c2ccc(O)cc2)c1)c1ccc(F)cc1Cl [JSF-2950],>40 µg/mL,>40 µg/mL,
COc1ccc(-c2cc(NCc3ccc(F)cc3Cl)ccc2OC)cc1 [JSF-2951],>80 µg/mL,>80 µg/mL,
"COc1ccc(-c2cc(NC(=O)c3ccc(F)cc3Cl)ccc2OC)cc1 [DG70, 2-chloro-N-(4',6-dimethoxy-[1,1'-biphenyl]-3-yl)-4-fluorobenzamide]",>80 µg/mL,40 µg/mL,>80 µg/mL and 40 µg/mL
COc1ccc(-c2cc(NC(=O)c3ccccc3)ccc2OC)cc1 [JSF-2912],>40 µg/mL,>40 µg/mL,
O=C(Nc1cccc(-c2ccccc2)c1)c1ccc(F)cc1Cl [JSF-2910],>40 µg/mL,>40 µg/mL,
COc1ccc(-c2cc(NC(=O)c3ccc(F)cc3)ccc2OC)cc1 [JSF-2909],>80 µg/mL,>80 µg/mL,
COc1ccc(-c2cc(NC(=O)c3ccccc3Cl)ccc2OC)cc1 [JSF-2908],>40 µg/mL,>40 µg/mL,
COc1ccc(NC(=O)c2ccc(F)cc2Cl)cc1 [JSF-2926],40 µg/mL,40 µg/mL,
COc1ccc(-c2cc(N(C)C(=O)c3ccc(F)cc3Cl)ccc2OC)cc1 [JSF-2949],>40 µg/mL,>40 µg/mL,
